Converted amounts (≈) assume the structure as drawn.

Data set [1] relates to MCF-7 (breast cells). Briefly: Antiproliferative activity, sulphorhodamine B (SRB) assay, MCF-7. In kind it is cell-based. As to conditions: Homo sapiens, MCF7, cytotoxicity, MCF-7 breast cancer cells, mean of three independent experiments. The protocol: (§1) The cytotoxicity of the new isolated compounds was evaluated against MCF-7 (breast cells), HepG2 (Hepatocellular) and HCT-116 (colorectal cells) human cancer cells using sulphorhodamine B assay (SRB). This assay was performed as previously published.
(§2) The antiproliferative activity of the target compounds was assessed on three cancer lines, MCF-7, HepG2 and HCT-116 cells using sulforhodamine assay. […].
Background: Sulforhodamine B stains cellular protein and so reports cell mass.

Data set [2] concerns HepG2 (Hepatocellular). As to the kind of experiment: Antiproliferative activity, sulphorhodamine B (SRB) assay, HepG2. As to conditions: Homo sapiens, HepG2, cytotoxicity, HepG2 liver cancer cells, mean of three independent experiments. The format is cell-based. The protocol: as §1, §2
Data set [3] has as its system HCT-116 (colorectal cells). As to the kind of experiment: Antiproliferative activity, sulphorhodamine B (SRB) assay, HCT-116. In kind it is cell-based. As to conditions: Homo sapiens, HCT-116, cytotoxicity, HCT-116 colorectal cancer cells, mean of three independent experiments. The protocol:
as §1, §2

The target in data set [4] is EGFR (Homo sapiens, UniProt P00533). As to the kind of experiment: In vitro EGFR kinase inhibitory activity (ELISA, EGFR Erb B1 kinase kit). (In an ELISA, binding on a coated surface is turned into a signal by an enzyme label.)
Sequence of EGFR (P00533 25-1210): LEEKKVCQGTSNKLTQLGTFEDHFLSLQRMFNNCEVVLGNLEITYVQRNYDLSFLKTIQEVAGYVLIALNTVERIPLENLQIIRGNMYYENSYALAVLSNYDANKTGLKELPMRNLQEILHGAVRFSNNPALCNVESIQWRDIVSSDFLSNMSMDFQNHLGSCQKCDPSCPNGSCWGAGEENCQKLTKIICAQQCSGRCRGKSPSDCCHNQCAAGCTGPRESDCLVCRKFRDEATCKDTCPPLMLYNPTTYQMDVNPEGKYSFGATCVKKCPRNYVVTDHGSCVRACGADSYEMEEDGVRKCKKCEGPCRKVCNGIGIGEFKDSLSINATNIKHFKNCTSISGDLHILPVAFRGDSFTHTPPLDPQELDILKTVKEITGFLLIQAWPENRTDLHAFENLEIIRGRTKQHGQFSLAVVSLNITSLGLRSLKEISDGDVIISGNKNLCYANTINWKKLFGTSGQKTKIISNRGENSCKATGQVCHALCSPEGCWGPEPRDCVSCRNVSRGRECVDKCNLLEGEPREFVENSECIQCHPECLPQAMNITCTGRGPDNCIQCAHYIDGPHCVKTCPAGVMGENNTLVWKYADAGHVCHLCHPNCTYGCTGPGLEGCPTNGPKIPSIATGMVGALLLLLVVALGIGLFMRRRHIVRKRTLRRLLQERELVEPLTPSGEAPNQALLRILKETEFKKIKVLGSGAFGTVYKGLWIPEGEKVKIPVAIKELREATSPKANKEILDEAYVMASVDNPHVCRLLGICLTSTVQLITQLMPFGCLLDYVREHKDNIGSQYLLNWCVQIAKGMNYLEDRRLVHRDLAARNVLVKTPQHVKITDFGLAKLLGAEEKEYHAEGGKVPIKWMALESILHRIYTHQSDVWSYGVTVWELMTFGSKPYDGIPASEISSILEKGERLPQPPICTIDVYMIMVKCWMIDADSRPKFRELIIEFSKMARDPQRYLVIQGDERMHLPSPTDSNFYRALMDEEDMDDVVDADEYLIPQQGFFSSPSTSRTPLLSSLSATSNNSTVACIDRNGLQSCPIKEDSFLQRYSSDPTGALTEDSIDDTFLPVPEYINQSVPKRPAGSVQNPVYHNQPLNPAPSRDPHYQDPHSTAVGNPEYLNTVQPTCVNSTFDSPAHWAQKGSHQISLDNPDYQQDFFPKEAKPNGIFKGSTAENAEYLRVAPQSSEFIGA
Description: Briefly, solutions of kinase/peptide and ATP were prepared prior to use. […] Then, 5 mL of this prepared solution was added into 96 well plates, incubated for 1 h and determined by an ELISA Reader (Perkin Elmer, Waltham, MA, USA). Each experiment was repeated three times and IC50 represented as mean ± S.E, was calculated using Graph Pad Prism 5.
Data set [5] deals with HepG2. Briefly: Apoptosis, acridine orange/ethidium bromide staining, HepG2. The format is cell-based, human. As to conditions: HepG2, AO/EtBr dual staining, 48 h, fluorescent microscope. The protocol:
(§3) AO and EtBr are DNA binding dyes. They have been used for detection of the morphological features of apoptotic and necrotic cells. The stainings were performed according the protocol as previously published.
(§4) The MCF-7, HepG2 and HCT 116 cancer cells were categorized by AO/EtBr dual staining. The different colors of the cells indicate different stages of apoptosis. […] and examined under a fluorescent microscope. Regularly stained green with normal, round, intact nuclei and cytoplasm indicates the viability of the normal cell (control).

The subject of data set [6] is HCT 116. Briefly: Apoptosis, acridine orange/ethidium bromide staining, HCT 116. As to conditions: HCT 116, AO/EtBr dual staining, 48 h, fluorescent microscope. In kind it is cell-based, human. The protocol: as §3, §4
Data set [7] has as its system MCF-7. Briefly: Apoptosis, acridine orange/ethidium bromide staining, MCF-7. In kind it is cell-based, human. As to conditions: MCF-7, AO/EtBr dual staining, 48 h, fluorescent microscope. The protocol:
as §3, §4

The IC50 is the concentration needed to halve the response being measured. A high value points to a need for much substance. As to `COc1cccc2c1C(=O)c1c(O)c3c(c(O)c1C2=O)C[C@@](O)(C(=O)CO)C[C@@H]3O[C@H]1C[C@H](N)[C@H](O)[C@H](C)O1` [Doxorubicin, reference compound], the half-inhibitory concentration (IC50) in data set [1] was determined as 1.41 µg/mL (≈ 2.59 µM); in data set [2], 1.62 µg/mL (≈ 2.98 µM); in data set [3] it was 2.11 µg/mL (≈ 3.88 µM).
With `COc1ccc2cc([C@H](C)c3nnc(SCc4cn(-c5cccc(Br)c5)nn4)o3)ccc2c1` [Compound 13], the half-inhibitory concentration (IC50) in data set [1] was 15.8 µg/mL (≈ 30.3 µM); in data set [2] it was 7.07 µg/mL (≈ 13.5 µM); in data set [3] it was 29.3 µg/mL (≈ 56 µM); in data set [4], 3.42 ± 0.11 µM.
A word on the melting point: it is the temperature, or range, at which the solid turns liquid. As to `COc1ccc2cc([C@H](C)c3nnc(SCc4cn(-c5ccc(Br)cc5)nn4)o3)ccc2c1` [Compound 14], the melting point was 160 to 161 °C. This molecule also had an IC50 in data set [1] of 7.5 µg/mL (≈ 14.4 µM). The IC50 in data set [2] stood at 7.63 µg/mL (≈ 14.6 µM). Further, in data set [3], the IC50 is 86.1 µg/mL (≈ 165 µM). In data set [4], this molecule returned an IC50 of 5.12 ± 0.21 µM.
Consider `COc1ccc2cc([C@H](C)c3nnc(SCC(=O)Nc4cccc(Cl)c4)o3)ccc2c1` [Compound 21], for which the IC50 in data set [1] was 25.9 µg/mL (≈ 57.1 µM); in data set [2], 7 µg/mL (≈ 15.4 µM); in data set [3] it was 1.24 µg/mL (≈ 2.73 µM); in data set [4], 0.82 ± 0.28 µM.
As to `COc1ccc2cc([C@H](C)c3nnc(SCc4cn(-c5ccccc5O)nn4)o3)ccc2c1` [Compound 15, 2-(4-((5-((S)-1-(2-methoxynaphthalen-6-yl)ethyl)-1,3,4-oxadiazol-2-ylthio)methyl)-1H-1,2,3-triazol-1-yl)phenol], the IC50 is 2.13 µg/mL (≈ 4.64 µM) in data set [1], 1.63 µg/mL (≈ 3.55 µM) in data set [2], 29.1 µg/mL (≈ 63.3 µM) in data set [3] and 0.41 ± 0.12 µM in data set [4]. Besides, the “Early apoptosis (cell death)” value in data set [5] and in data set [6] was “percentage of cell death decreased” in each case. The Late apoptosis entry in data set [6] was “induces more late apoptosis”. The Necrosis entry in data set [6] is “high percentage of necrosis”.
`COc1ccc2cc([C@H](C)c3nnc(SCc4cn(-c5cccc(C(=O)O)c5)nn4)o3)ccc2c1` [Compound 16]: the half-inhibitory concentration (IC50) in data set [1] came to 10.4 µg/mL (≈ 21.4 µM); in data set [2] it was 10.7 µg/mL (≈ 21.9 µM); in data set [3] it was 8.36 µg/mL (≈ 17.1 µM); in data set [4], 2.27 ± 0.17 µM. The Late apoptosis result in data set [7] and in data set [5] was “observed at a high rate” throughout. The Necrosis entry in data set [7] and in data set [5] was “high percentage of necrosis” throughout.
Turning to `COc1ccc2cc([C@H](C)c3nnc(SCc4cn(-c5ccccc5Cl)nn4)o3)ccc2c1` [Compound 10], the IC50 worked out at 5.05 µg/mL (≈ 10.6 µM) in data set [1], 3.53 µg/mL (≈ 7.39 µM) in data set [2], 33.9 µg/mL (≈ 70.9 µM) in data set [3] and 0.67 ± 0.33 µM in data set [4]. The “Early apoptosis (cell death)” value in data set [7], in data set [5] and in data set [6] was “significant rate of cell death in early apoptosis” throughout.
`COc1ccc2cc([C@H](C)c3nnc(SCC(=O)Nc4ccc(F)cc4)o3)ccc2c1` [Compound 19] registered a melting point of 220 to 221 °C.
Consider `COc1ccc2cc([C@H](C)c3nnc(SCC(=O)N4CCOCC4)o3)ccc2c1` [Compound 26], for which the results for the IC50 in data set [1], in data set [2] and in data set [3] were 22.3 µg/mL (≈ 53.9 µM), 23.6 µg/mL (≈ 57.2 µM) and 11.1 µg/mL (≈ 26.8 µM), respectively.
On to `COc1ccc2cc([C@H](C)c3nnc(SCC(=O)Nc4ccccc4C(=O)O)o3)ccc2c1` [Compound 25], for which the melting point fell in the range of 130 to 131 °C. The IC50 in data set [1] was determined as 29.8 µg/mL (≈ 64.3 µM). Also, 28 µg/mL (≈ 60.5 µM) corresponded to half-maximal inhibition in data set [2] (IC50). Also, in data set [3], the midpoint of inhibition, the IC50, lay at 29.2 µg/mL (≈ 63 µM).
Regarding `COc1ccc2cc([C@H](C)c3nnc(SCC(=O)Nc4ccc(F)cc4F)o3)ccc2c1` [Compound 20], the melting point was 102 to 103 °C. For the same molecule, the IC50 in data set [1] was found to be 32.6 µg/mL (≈ 71.7 µM). The half-inhibitory concentration (IC50) in data set [2] turned out to be 31.3 µg/mL (≈ 68.8 µM). Moreover, the IC50 in data set [3] was 73.4 µg/mL (≈ 161 µM).
As for `COc1ccc2cc([C@H](C)c3nnc(SCc4cn(-c5cccc(Cl)c5)nn4)o3)ccc2c1` [Compound 11], the IC50 in data set [1] was determined as 60.5 µg/mL (≈ 126 µM); in data set [2] it was 37.9 µg/mL (≈ 79.3 µM); in data set [3], 83.9 µg/mL (≈ 176 µM).
`COc1ccc2cc([C@H](C)c3nnc(SCC(=O)Nc4ccc(Br)cc4)o3)ccc2c1` [Compound 23] showed a melting point of 148 to 149 °C. In data set [1], this molecule displayed an IC50 of 25.6 µg/mL (≈ 51.3 µM). In addition, the IC50 in data set [2] was found to be 15 µg/mL (≈ 30 µM). The molecule further returned an IC50 in data set [3] of 35.1 µg/mL (≈ 70.5 µM).
Consider `COc1ccc2cc([C@H](C)c3nnc(SCC(=O)Nc4ccccc4C)o3)ccc2c1` [Compound 24], for which the IC50 in data set [1] was determined as 8.15 µg/mL (≈ 18.8 µM); in data set [2], 4.88 µg/mL (≈ 11.3 µM); in data set [3] it was 29.3 µg/mL (≈ 67.7 µM); in data set [4], 1.08 ± 0.31 µM.
With `COc1ccc2cc([C@H](C)c3nnc(SCc4cn(-c5ccc(F)cc5F)nn4)o3)ccc2c1` [Compound 9], the IC50 in data set [1] was 6.47 µg/mL (≈ 13.5 µM); in data set [2], 4.52 µg/mL (≈ 9.43 µM); in data set [3] it was 7.46 µg/mL (≈ 15.6 µM); in data set [4], 0.71 ± 0.17 µM. Also, the “Early apoptosis (cell death)” value in data set [7], in data set [5] and in data set [6] was “significant rate of cell death in early apoptosis” each time. Further, the Necrosis result in data set [7], in data set [5] and in data set [6] was “does not cause death of the necrosis pathway” throughout.
As for `COc1ccc2cc([C@H](C)c3nnc(SCC(=O)Nc4cccc(Br)c4)o3)ccc2c1` [Compound 22], the melting point was 129 to 130 °C. This molecule also returned an IC50 in data set [1] of over 100 µg/mL. In data set [2], this molecule gave an IC50 of over 100 µg/mL.
With `COc1ccc2cc([C@H](C)c3nnc(SCc4cn(-c5ccc(F)cc5)nn4)o3)ccc2c1` [Compound 8], the melting point fell in the range of 99 to 100 °C. Also, the IC50 in data set [1] worked out at 7.38 µg/mL (≈ 16 µM). Moreover, the IC50 in data set [2] is 25.5 µg/mL (≈ 55.2 µM). In data set [3], this molecule gave an IC50 of 15.7 µg/mL (≈ 33.9 µM). In addition, the IC50 in data set [4] worked out at 7.31 ± 0.25 µM.
Turning to `COc1ccc2cc([C@H](C)c3nnc(SCc4cn(-c5ccc(Cl)cc5Cl)nn4)o3)ccc2c1` [Compound 12], the melting point lay within 102 to 103 °C. For the same molecule, 45.7 µg/mL (≈ 89.2 µM) corresponded to half-maximal inhibition in data set [1] (IC50). This molecule also came in with an IC50 in data set [2] of 26.4 µg/mL (≈ 51.5 µM). The molecule further returned an IC50 in data set [3] of 28.1 µg/mL (≈ 54.9 µM).

The values above are taken from article PMC8469912, “Naproxen Based 1,3,4-Oxadiazole Derivatives as EGFR Inhibitors: Design, Synthesis, Anticancer, and Computational Studies” (Pharmaceuticals, 2021).
